Test results: ChEMBL document CHEMBL1126970, “Development of 1,4-benzodiazepine cholecystokinin type B antagonists” (J Med Chem, 1993)

Assays:
Cavia porcellus = species: Cavia porcellus; test: Selectivity ratio between CCK-B and CCK-A receptor; parameters: reference not given here
[1] = target: T1, Cholecystokinin receptor type A (Rattus norvegicus, UniProt P30551); test: Inhibition of binding of [125I]CCK-8 to cholecystokinin type A receptor in rat pancreatic tissue
T1 sequence (P30551 whole entry): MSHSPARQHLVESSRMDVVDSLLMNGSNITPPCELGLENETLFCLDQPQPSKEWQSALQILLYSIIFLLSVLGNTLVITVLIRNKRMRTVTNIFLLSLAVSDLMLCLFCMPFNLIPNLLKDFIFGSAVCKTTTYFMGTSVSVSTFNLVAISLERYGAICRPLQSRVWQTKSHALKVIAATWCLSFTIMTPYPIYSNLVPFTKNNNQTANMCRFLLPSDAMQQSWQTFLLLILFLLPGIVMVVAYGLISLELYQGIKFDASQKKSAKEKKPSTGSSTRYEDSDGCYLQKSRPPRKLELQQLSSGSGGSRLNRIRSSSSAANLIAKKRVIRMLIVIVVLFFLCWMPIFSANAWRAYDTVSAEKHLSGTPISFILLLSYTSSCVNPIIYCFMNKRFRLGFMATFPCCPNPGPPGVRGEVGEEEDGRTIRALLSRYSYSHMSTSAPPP

Compound	Selectivity ratio (Cavia porcellus)	IC50 [1]
COC(=O)Cc1cccc(NC(=O)NC2N=C(c3ccccc3)c3ccccc3N(C)C2=O)c1 (stereo unspecified)	64	2100 nM
CN1C(=O)[C@@H](NC(=O)Nc2ccccc2Cl)N=C(c2ccccc2)c2ccccc21	< 0.01	0.26 nM
CN1C(=O)[C@H](NC(=O)Nc2ccc(Cl)cc2)N=C(c2ccccc2)c2ccccc21	112	2200 nM
O=C(Nc1ccc(Cl)cc1)N[C@@H]1N=C(c2ccccc2)c2ccccc2N(CC(=O)N2CCCC2)C1=O	643	900 nM
O=C(Nc1ccc(Cl)cc1)NC1N=C(c2ccccc2)c2ccccc2NC1=O (racemic)	0.4	110 nM
CN1C(=O)C(NC(=O)NC(C)(C)C)N=C(c2ccccc2)c2ccccc21 (racemic)	0.2	–
Cc1cccc(NC(=O)N[C@H]2N=C(c3ccccc3)c3ccccc3N(C)C2=O)c1	–	4.7 nM
CN1C(=O)C(NC(=O)Nc2ccncc2)N=C(c2ccccc2)c2ccccc21 (racemic)	1.4	1510 nM
COc1cc(NC(=O)NC2N=C(c3ccccc3)c3ccccc3N(C)C2=O)cc(OC)c1 (racemic)	0.1	–
CN1C(=O)C(NC(=O)Nc2ccc3c(c2)CCC3)N=C(c2ccccc2)c2ccccc21 (stereo unspecified)	333	900 nM
CN1C(=O)C(NC(=O)Nc2cccc(CNC(=O)OC(C)(C)C)c2)N=C(c2ccccc2)c2ccccc21 (stereo unspecified)	1	200 nM
CN1C(=O)C(NC(=O)Nc2ccc3ccccc3n2)N=C(c2ccccc2)c2ccccc21 (stereo unspecified)	7	180 nM
CN1C(=O)C(NC(=O)Nc2cccc([N+](=O)[O-])c2)N=C(c2ccccc2)c2ccccc21 (racemic)	3	–
COC(=O)[C@H]1CCCN1OC(=O)CN1C(=O)C(NC(=O)Nc2cccc(OC)c2)N=C(c2ccccc2)c2ccccc21 (mixture of isomers)	144	1400 nM
COc1cccc(NC(=O)NC2N=C(c3ccccc3)c3ccccc3N(C)C2=O)c1 (racemic)	2	–
CN1C(=O)C(NC(=O)Nc2ccc(N)nc2)N=C(c2ccccc2)c2ccccc21 (stereo unspecified)	6	3000 nM
CN1C(=O)[C@@H](NC(=O)Nc2ccc(Cl)cc2)N=C(c2ccccc2)c2ccccc21	0.1	110 nM
CN1C(=O)C(NC(=O)Nc2cccc(F)c2)N=C(c2ccccc2)c2ccccc21 (racemic)	0.2	–
COc1cccc(NC(=O)NC2N=C(c3ccccc3)c3ccccc3N(CCN(C)C)C2=O)c1 (racemic)	16	3090 nM
CCN(CC)C(=O)CN1C(=O)C(NC(=O)Nc2ccc(Cl)cc2)N=C(c2ccccc2)c2ccccc21 (racemic)	667	–
COc1cccc(NC(=O)N[C@@H]2N=C(c3ccccc3)c3ccccc3N(C)C2=O)c1	272	–
CN1C(=O)C(NC(=O)Nc2cccc3ccccc23)N=C(c2ccccc2)c2ccccc21 (racemic)	0.9	68 nM
CC(=O)c1cccc(NC(=O)NC2N=C(c3ccccc3)c3ccccc3N(C)C2=O)c1 (stereo unspecified)	361	1300 nM

Compound	Selectivity ratio (Cavia porcellus)	IC50 [1]
CN1C(=O)C(NC(=O)Nc2ccc(Cl)cc2Cl)N=C(c2ccccc2)c2ccccc21 (racemic)	0.01	–
Cc1cccc(NC(=O)NC2N=C(c3ccccc3)c3ccccc3N(CC(=O)N3CC[N+](C)(C)CC3)C2=O)c1 (racemic)	107	6200 nM
CN1C(=O)C(NC(N)=O)N=C(c2ccccc2)c2ccccc21 (racemic)	> 0.5	55000 nM
Cc1cccc(NC(=O)NC2N=C(c3ccccc3)c3ccccc3N(Cc3c[nH]cn3)C2=O)c1 (racemic)	1	–
Cc1cccc(NC(=O)NC2N=C(c3ccccc3)c3ccncc3N(C)C2=O)c1 (racemic)	< 0.01	144 nM
COc1ccc(NC(=O)NC2N=C(c3ccccc3)c3ccccc3N(C)C2=O)cc1 (racemic)	6	165 nM
CN1C(=O)C(NC(=O)Nc2cccc(-c3ccccc3)c2)N=C(c2ccccc2)c2ccccc21 (racemic)	1	123 nM
CCN(CC)C(=O)CN1C(=O)C(NC(=O)Nc2ccccc2Cl)N=C(c2ccccc2)c2ccccc21 (racemic)	53	200 nM
CN1C(=O)C(NC(=O)Nc2ccc(F)cc2)N=C(c2ccccc2)c2ccccc21 (stereo unspecified)	0.7	–
CN1C(=O)C(NC(=O)NCc2cccc(C(C)(C)O)c2)N=C(c2ccccc2)c2ccccc21 (stereo unspecified)	69	406 nM
CCN(CC)C(=O)C(C)N1C(=O)C(NC(=O)Nc2ccc(Cl)cc2)N=C(c2ccccc2)c2ccccc21 (racemic)	19	410 nM
Cc1ccc(NC(=O)NC2N=C(c3ccccc3)c3ccccc3N(C)C2=O)cc1C (stereo unspecified)	14	310 nM
O=C(Nc1ccc(Cl)cc1)NC1N=C(c2ccccc2)c2ccccc2N(CC(=O)N2CCCC2)C1=O (racemic)	625	1000 nM
CN1C(=O)C(NC(=O)Nc2ccccn2)N=C(c2ccccc2)c2ccccc21 (racemic)	1.3	447 nM
CN1C(=O)C(NC(=O)Nc2ccc([N+](=O)[O-])cc2)N=C(c2ccccc2)c2ccccc21 (racemic)	4.5	–
CN1C(=O)C(NC(=O)Nc2cccc(Br)c2)N=C(c2ccccc2)c2ccccc21 (racemic)	1	–
Cc1cccc(NC(=O)NC2N=C(c3ccccc3)c3ccccc3N(CC(=O)ON3CCC[C@@H]3C(=O)O)C2=O)c1 (mixture of isomers)	15	20000 nM
Cc1cccc(NC(=O)NC2N=C(c3ccccc3)c3ccccc3N(CCOC(=O)CCC(=O)O)C2=O)c1 (racemic)	5	37 nM
CN1C(=O)C(NC(=O)Nc2cccnc2)N=C(c2ccccc2)c2ccccc21 (racemic)	0.4	120 nM
O=C(Nc1ccc(Cl)cc1)N[C@H]1N=C(c2ccccc2)c2ccccc2N(CC(=O)N2CCCC2)C1=O	192	2500 nM
CCN(CC)C(=O)CN1C(=O)C(NC(=O)Nc2cccc(OC)c2)N=C(c2ccccc2)c2ccccc21 (racemic)	545	120 nM
Cc1cccc(NC(=O)NC2N=C(c3ccccc3)c3cnccc3N(C)C2=O)c1 (racemic)	0.1	61.4 nM
CN1C(=O)[C@H](NC(=O)Nc2cccc(Br)c2)N=C(c2ccccc2)c2ccccc21	221	–

Compound	Selectivity ratio (Cavia porcellus)	IC50 [1]
O=C(Nc1ccc(Cl)cc1)NC1N=C(c2ccccc2)c2ccccc2N(Cc2nnn[nH]2)C1=O (racemic)	–	2100 nM
O=C(CN1C(=O)C(NC(=O)Nc2ccc(Cl)cc2)N=C(c2ccccc2)c2ccccc21)NCc1ccccc1 (racemic)	24	–
COc1ccccc1NC(=O)NC1N=C(c2ccccc2)c2ccccc2N(C)C1=O (racemic)	0.5	–
CN1C(=O)C(NC(=O)Nc2ccc(Cl)c(Cl)c2)N=C(c2ccccc2)c2ccccc21 (racemic)	0.4	–
CN1C(=O)C(NC(=O)NCc2ccccc2)N=C(c2ccccc2)c2ccccc21 (racemic)	0.6	–
CN1C(=O)[C@H](NC(=O)c2ccc(C(F)(F)F)cc2)N=C(c2ccccc2)c2ccccc21	35	–
CCOC(=O)CN1C(=O)C(NC(=O)c2ccccc2Cl)N=C(c2ccccc2F)c2ccccc21 (racemic)	> 9	–
CN1C(=O)C(NC(=O)Nc2ccc(C(=O)O)cc2)N=C(c2ccccc2)c2ccccc21 (racemic)	–	> 10000 nM
CCOC(=O)CCN1C(=O)C(NC(=O)Nc2ccc(Cl)cc2)N=C(c2ccccc2)c2ccccc21 (racemic)	204	–
COc1cccc(NC(=O)N[C@H]2N=C(c3ccccc3)c3ccccc3N(C)C2=O)c1	< 0.01	–
CN1C(=O)C(NC(=O)Nc2ccccc2)N=C(c2ccccc2)c2ccccc21 (racemic)	0.26	–
CN1C(=O)C(NC(=O)Nc2ccccc2[N+](=O)[O-])N=C(c2ccccc2)c2ccccc21 (racemic)	< 0.01	–
O=C(Nc1ccc(Cl)cc1)NC1N=C(c2ccccc2)c2ccccc2N(Cc2nn[nH]n2)C1=O (racemic)	4	–
CCNC(=O)CN1C(=O)C(NC(=O)Nc2ccc(Cl)cc2)N=C(c2ccccc2)c2ccccc21 (racemic)	191	–
CN1C(=O)C(NC(=O)NC2CCCCC2)N=C(c2ccccc2)c2ccccc21 (racemic)	0.8	–
Cc1cccc(NC(=O)NC2N=C(c3ccccc3)c3ccccc3N(Cc3ncc[nH]3)C2=O)c1 (racemic)	4	–
CN1CCN(C(=O)CN2C(=O)C(NC(=O)Nc3ccc(Cl)cc3)N=C(c3ccccc3)c3ccccc32)CC1 (racemic)	1500	–
CCOC(=O)CN1C(=O)C(NC(=O)Nc2ccc(Cl)cc2)N=C(c2ccccc2)c2ccccc21 (racemic)	370	–
O=C(O)CN1C(=O)C(NC(=O)Nc2ccc(Cl)cc2)N=C(c2ccccc2)c2ccccc21 (racemic)	0.77	–
CN1C(=O)C(NC(=O)Nc2cccc(Cl)c2)N=C(c2ccccc2)c2ccccc21 (racemic)	1	–
CN1C(=O)C(NC(=O)Nc2ccc(Br)cc2)N=C(c2ccccc2)c2ccccc21 (racemic)	2.7	–
O=C(Nc1ccc(Cl)cc1)NC1N=C(c2ccccc2)c2ccccc2N(CC(=O)OCc2ccccc2)C1=O (racemic)	30	–
CN1C(=O)[C@H](NC(=O)Nc2cccc(Cl)c2)N=C(c2ccccc2)c2ccccc21	39	–
